Results on five compounds are retold here after US8614215B2, “Quinoxaline inhibitors of phosphoinositide-3-kinases (PI3Ks)” (Merck Serono SA, priority 2007, dated 2013).

The structures appear in SMILES notation.

In series [1] the test system is Human recombinant GST-PI3K. Nature of the series: PI3K induced-lipid phosphorylation, neomycin-SPA scintillation proximity assay. In kind it is biochemical. The following applies: Human recombinant GST-PI3K, SPA.
Series [2] relates to IgM-induced Akt phosphorylation in B cell. Put plainly: IgM-induced Akt phosphorylation in B cell (PBMC, flow cytometry). Type of series: cell-based. Particulars: human PBMC, CD19+ IgM+ B cells, read-out: IC50 μM, inhibition of IgM-induced Akt phosphorylation. How it is done:
Human PBMC were prepared from a Buffy coat (Geneve Hospital) after a Ficoll gradient (Ficoll-Paque™ Plus PHARMACIA ref: 17-1440-03).
Cell concentration was adjusted to 10^6 cells per mL in RPMI (GIBCO Ref: 72400-21) without serum. Before stimulation, 90 μl of PBMC suspension was incubated with 10 μl of diluted compound in a 96 well round bottom plate for 20 minutes at 37° C.
For B cell activation, 30 μl of Fab′2 Goat anti IgM (Jackson Immuno-research) at10 μg/mL was added to each well. After 5 minutes, cell activation was stopped with 4% paraformaldehyde (10 minutes at room temperature).
Fixed PBMC were then treated for 20 minutes with 0.15% Triton, washed twice with PBS and permeabilized with 50% methanol for 15 minutes.
PBMC were washed twice in PBS, resuspended in: PBS-4% FCS and incubated with anti P-Akt ( 1/100 dilution) for one h at room temperature.
After one wash, PBMC were further stained for 30 minutes with a mixture of anti-CD19-PE (BD Biosciences), anti-IgM-FITC (BD Biosciences) and goat anti rabbit IgG-Alexa 647 (Molecular probe).
After washing, PBMC (Peripheral Blood Mononuclear Cells) were analysed on a FACSCalibur instrument (BD Biosciences) equipped with a 633 helium-neon laser, or stored at 4° C. for further analysis. 510^3 B cells events were gathered per sample in the CD19 positive region.
For the analysis, a threshold was applied on P-Akt histogram of CD19+ IgM+ lymphocytes cells from the non stimulated samples and the percentage of cells above this threshold was determined for each sample.
(In flow cytometry, cells or beads pass a laser one at a time.)

Series [3] concerns IgM-induced Akt phosphorylation in B cell in the presence of whole blood. Put plainly: IgM-induced Akt phosphorylation in B cell in the presence of whole blood. In kind it is cell-based. The following applies: Homo sapiens, CD19+ IgM+ cells, read-out: IC50 μM, inhibition of IgM-induced Akt phosphorylation in the presence of whole blood. As for the experimental part: 100 μl of blood are pre-incubated in falcon tube (352063) for 20 minutes at 37° C.
For B cell activation 100 μl of Fab′2 Goat anti Human IgM (30 ug/mL final) is added to each tube and cells are maintained at 37° C.
After 5 minutes, cell activation is stopped with 130 μl Formaldehyde 10% (4% final) and cells are left 10 minutes at room temperature.
Fixed cells are then treated 30 minutes with Triton 0.1% final (add 1 mL of 0.15% Triton)
After several washes with PBS (red cells lysed progressively during washes, 3-4 washes are necessary), cells are transferred in 96 well plate and permeabilized with 50% ice cold Methanol (resuspend first the cells with 80 μl PBBS and then with 80 μl 100% ice cold Methanol) and put on ice for 15 minutes. Plate can be stored in −20° C. in methanol and surface staining performed another day).
Cells are washed twice with PBS and once with the staining buffer-PBS-4% FCS.
Cells are incubated with anti P-Akt (1/70 dilution) In staining buffer for one h.
After a wash with staining buffer, cells are stained with a mixture of anti CD19-PE (3 ul/well), anti-IGM-FITC (3 ul/well), Goat anti rabbit IgG-Alexa 647 (1/500), goat IgG (1/200) for 30 minutes.
After a wash, cells are resuspended in staining buffer or PBS, kept in fridge or immediately passed on a FACSCalibur instrument (BD Biosciences) equipped with a 633 helium-neon laser (red laser).
P-akt histogram of CD19+IGM+ cells is represented and a threshold is set with the non stimulated sample. The parameter reported for each sample is the % of positive cells above this cursor. A representative example is set out in FIG. 1.

A short description of series [4]: Ex-vivo IgM-induced Akt phosphorylation in mouse after oral administration. The following applies: male, C57Bl/6, blood. As for the experimental part:
Compounds are dissolved in 0.5% Carboxymethylcellulose containing 0.25% Tween 20 in water and administered orally to each mouse (6-8 weeks old C57B1/6 males from janvier) in a volume of 10 mL/kg. Half an hour before blood collection, heparin at 100 U/kg is injected intraperitonealy to each mouse. At appropriate Tm (maximum exposure) mice are sacrificed and blood collected by intra-cardiac puncture in heparinised tubes.
Blood is pre-incubated at 37° C. for 20 minutes, then an equal volume of Fab′2 Goat anti-Mouse IgM (μspecific, Jackson ImmunoResearch) at 60 μg/mL is added to each tube. B cell activation is terminated after 3 minutes using formaldehyde 4% final and red blood cells are lysed with another 30 minutes Triton X-100 0.1% treatment. Further to several washes with PBS, cells are transferred in a 96 well plate, permeabilized with 50% ice cold Methanol and put on ice for 15 minutes.
Cells were washed PBS before being incubated for one hour with a Rabbit anti Phospho-Akt antibody (4058 from Cell Signaling) in PBS-4% FCS. […]
Cells were analysed on a FACSCalibur instrument (BD Biosciences) equipped with a 633 helium-neon laser (red laser) and 5.10^3 B cells are collected. A threshold was applied on P-Akt histogram of B220^+ IgM+ lymphocytes from the non stimulated tube and the percentage of cells above this threshold is determined for each sample.

Series [5] has as its system Class I PI3-kinases. Particulars: Fruman et al., 1998; read-out: IC50 against each of the various Class I PI3-kinases; cited from earlier work.
Series [6] addresses CK2 protein kinase (Homo sapiens (Human), UniProt P68400). Particulars: Fruman et al., 1998; cited from earlier work.

Broadly, the IC50 is the concentration that gives 50% inhibition. As a reminder, the Tmax is the time at which the peak concentration occurs.

Sequence of CK2 protein kinase (P68400 whole entry): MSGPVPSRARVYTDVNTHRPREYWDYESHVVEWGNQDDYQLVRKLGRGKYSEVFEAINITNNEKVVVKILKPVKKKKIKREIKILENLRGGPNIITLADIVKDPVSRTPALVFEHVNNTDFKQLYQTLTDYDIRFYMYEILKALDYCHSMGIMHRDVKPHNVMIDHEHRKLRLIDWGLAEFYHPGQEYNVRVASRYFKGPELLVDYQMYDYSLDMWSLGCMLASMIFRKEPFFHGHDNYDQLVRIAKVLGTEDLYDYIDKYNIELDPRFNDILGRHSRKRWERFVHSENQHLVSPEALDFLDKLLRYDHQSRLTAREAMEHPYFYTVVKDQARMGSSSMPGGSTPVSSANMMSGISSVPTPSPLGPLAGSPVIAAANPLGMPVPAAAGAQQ

Regarding `COc1ccc(CN2CCN(C)CC2)c(Nc2nc3ccccc3nc2NS(=O)(=O)c2cccnc2)c1` [Example 81, N-[3-({5-methoxy-2-[(4-methylpiperazin-1-yl)methyl]phenyl}amino)quinoxalin-2-yl]pyridine-3-sulfonamide], the IC50 was 0.049 µM in series [1], 0.03 µM in series [2] and 1.9 µM in series [3]. Further, the Tmax in series [4] was 15 min.

With `COc1ccc(CC2CCN(C)CC2)c(Nc2nc3ccccc3nc2NS(=O)(=O)c2cn(C)cn2)c1` [Example 11, N-[3-({5-methoxy-2-[(1-methylpiperidin-4-yl)methyl]phenyl}amino)quinoxalin-2-yl]-1-methyl-1H-imidazole-4-sulfonamide], the IC50 in series [1] was 0.043 µM; in series [2] it was 0.07 µM; in series [3], 0.3 µM.

Take `COC[C@H]1OC(=O)c2coc3c2[C@@]1(C)C1=C(C3=O)[C@@H]2CCC(=O)[C@@]2(C)C[C@H]1OC(C)=O` [Wortmannin]: the IC50 in series [5] was 0.001 to 0.01 µM.

For the compound `COc1ccc(CC2CCN(C)CC2)c(Nc2nc3ccccc3nc2NS(C)(=O)=O)c1` [Example 13, N-[3-({5-methoxy-2-[(1-methylpiperidin-4-yl)methyl]phenyl}amino)quinoxalin-2-yl]methanesulfonamide], the IC50 turned out to be 0.11 µM in series [1], 0.07 µM in series [2] and 1 µM in series [3].

In the case of `O=c1cc(N2CCOCC2)oc2c(-c3ccccc3)cccc12` [LY294002], the IC50 in series [6] is 5000 to 10000 µM.
